Source: patent US6410575B1, “Viral treatment” (The Procter & Gamble Company, priority 1999, dated 2002)
Where “and” joins values, the source holds several entries; their conditions need not be identical. Equal values may be shown once.

Tests used:
[1] = system: vero cells; assay: Herpes simplex testing, toxicity (TC50); parameters: unit not given beside the values
[2] = system: BVDV; assay: BVDV testing in vitro; type: cell-based, bovine diarrhea virus
Text: DMSO had no effect, as expected.
BVDV is a bovine diarrhea virus and is a well known surrogate virus for hepatitis C which cannot be cultured in vitro.

[3] = system: TPA-induced BCBL-1 cells; assay: Toxicity values in the HHV8 test; type: cell-based
Procedure: (§1) Toxicity quantification involves the XTT-based evaluation. Assays were designed to characterize the long term effects of the compounds on virus production and to characterize the longer term effects of the compounds on virus production from chronically HIV infected cells.
(§2) The DNA copy number and the toxicity value were measured and compared with Cidofovir. Kaposi's sarcoma (KS) is a cancer that is often found in people with weak immune systems, such as those taking immunosuppressants or those with AIDS. The exact nature of the disease is uncertain, but it is almost always found in association with HHV8.

[4] = Toxicity values in the HHV8 test; type: cell-based; details: human, TPA-induced BCBL-1 cells; read-out: TC50 (the source's name)
Procedure: as §1, §2

[5] = system: U937KN1272, a protease resistant strain; assay: Long term in vitro study, U937KN1272; type: cell-based, HIV
Procedure: as §1
(§3) CEM-SS cells chronically infected with HIV isolate, for example SKI (CEM-SKI) are cultured in RPMI1640 tissue culture medium supplemented with 10% fetal bovine serum and antibiotics. […] CEM-SKI or other infected cells with no added drug are used as the control cells.
(§4) Cells are allowed to grow to a density of approximately 1×10^6 cells/ml and are then passaged at a 1:10 dilution. […] The drug concentration in the flask is then increased two-fold and the cells maintained as above.
(§5) The cell populations contain integrated copies of the HIV genome and constitutively produce HIV at relatively high levels or are latently infected and only produce virus after stimulation with phorbol esters, tumor necrosis factor or IL6(U1 and ACH2). Reductions in virus products were observed when quantifying supernatant reverse transcriptase activity.
Similar results are obtained with U937KN1272, a protease resistant strain, reported below.

[6] = system: CEMROD; assay: Toxicity values in the HIV-2 screening test; type: cell-based; parameters: Toxicity Values, sample / Toxicity Values, average: unit not given here
Text: as §1

[7] = system: U937JE225R, a protease resistant strain; assay: Long term in vitro study, U937JE225R; type: cell-based, HIV
Procedure: as §1, §3, §4, §5
The results with U937JE225R cells was reported at weekly intervals.

NC(=S)Nc1nsc(-c2ccccc2)n1
TC50 [1]: > 200 | Antiviral Index (AI), TC50/IC50 ([2]; first test): greater than 4000 | Antiviral Index (AI), TC50/IC50 ([2]; second screening test): 1000.4 | % cell control ([3]; 0.64 μM): 114.3% | % cell control ([3]; 2 μM): 114.9% | % cell control ([3]; 6.4 μM): 104.6% | % cell control ([3]; 20 μM): 114.8% | % cell control ([3]; 64 μM): 59.7% | % cell control ([3]; 200 μM): 23.4% | CC50 [4]: 100 µM | virus production (supernatant reverse transcriptase activity) ([5]; U937KN1272, 7 μg/ml, day 4): 119839 | virus production (supernatant reverse transcriptase activity) ([5]; U937KN1272, 7 μg/ml, day 11): 78089 | virus production (supernatant reverse transcriptase activity) ([5]; U937KN1272, 7 μg/ml, day 18): 74773 | virus production (supernatant reverse transcriptase activity) ([5]; U937KN1272, 7 μg/ml, day 25): 78997 | virus production (supernatant reverse transcriptase activity) ([5]; U937KN1272, 7 μg/ml, day 32): 31156 | virus production (supernatant reverse transcriptase activity) ([5]; U937KN1272, 7 μg/ml, day 39): 41326 | virus production (supernatant reverse transcriptase activity) ([5]; U937KN1272, 7 μg/ml, day 46): 31024 | virus production (supernatant reverse transcriptase activity) ([5]; U937KN1272, 7 μg/ml, day 53): 31209 | virus production (supernatant reverse transcriptase activity) ([5]; U937KN1272, 15 μg/ml, day 4): 103341 | virus production (supernatant reverse transcriptase activity) ([5]; U937KN1272, 15 μg/ml, day 11): 80161 | virus production (supernatant reverse transcriptase activity) ([5]; U937KN1272, 15 μg/ml, day 18): 73939 | virus production (supernatant reverse transcriptase activity) ([5]; U937KN1272, 15 μg/ml, day 25): 74262 | virus production (supernatant reverse transcriptase activity) ([5]; U937KN1272, 15 μg/ml, day 32): 26305 | virus production (supernatant reverse transcriptase activity) ([5]; U937KN1272, 15 μg/ml, day 39): 28635 | virus production (supernatant reverse transcriptase activity) ([5]; U937KN1272, 15 μg/ml, day 46): 18073 | virus production (supernatant reverse transcriptase activity) ([5]; U937KN1272, 15 μg/ml, day 53): 22110 | virus production (supernatant reverse transcriptase activity) ([5]; U937KN1272, 30 μg/ml, day 4): 114070 | virus production (supernatant reverse transcriptase activity) ([5]; U937KN1272, 30 μg/ml, day 11): 89087 | virus production (supernatant reverse transcriptase activity) ([5]; U937KN1272, 30 μg/ml, day 18): 72398 | virus production (supernatant reverse transcriptase activity) ([5]; U937KN1272, 30 μg/ml, day 25): 38006 | virus production (supernatant reverse transcriptase activity) ([5]; U937KN1272, 30 μg/ml, day 32): 6908 | virus production (supernatant reverse transcriptase activity) ([5]; U937KN1272, 30 μg/ml, day 39): 14779 | virus production (supernatant reverse transcriptase activity) ([5]; U937KN1272, 30 μg/ml, day 46): 5663 | virus production (supernatant reverse transcriptase activity) ([5]; U937KN1272, 30 μg/ml, day 53): 10534 | % cell control ([6]; 0.32 μg/ml): 101.6% | Toxicity Values, average ([6]; 0.32 μg/ml): 1.197 | Toxicity Values, sample ([6]; 0.32 μg/ml): 1.181 and 1.206 and 1.203 | % cell control ([6]; 1 μg/ml): 90.9% | Toxicity Values, average ([6]; 1 μg/ml): 1.071 | Toxicity Values, sample ([6]; 1 μg/ml): 1.055 and 1.093 and 1.066 | % cell control ([6]; 1.0 μg/ml): 75.6% | Toxicity Values, average ([6]; 1.0 μg/ml): 0.891 | Toxicity Values, sample ([6]; 1.0 μg/ml): 0.871 and 0.881 and 0.921 | % cell control ([6]; 3.2 μg/ml): 83.1% | Toxicity Values, average ([6]; 3.2 μg/ml): 0.979 | Toxicity Values, sample ([6]; 3.2 μg/ml): 0.987 and 0.984 and 0.965 | % cell control ([6]; 32 μg/ml): 43.2% | Toxicity Values, average ([6]; 32 μg/ml): 0.509 | Toxicity Values, sample ([6]; 32 μg/ml): 0.518 and 0.491 and 0.517 | % cell control ([6]; 100 μg/ml): 9.8% | Toxicity Values, average ([6]; 100 μg/ml): 0.115 | Toxicity Values, sample ([6]; 100 μg/ml): 0.113 and 0.117 and 0.115 | virus production (supernatant reverse transcriptase activity) ([7]; 7 μg/ml, day 4): 12165 | virus production (supernatant reverse transcriptase activity) ([7]; 7 μg/ml, day 11): 9465 | virus production (supernatant reverse transcriptase activity) ([7]; 7 μg/ml, day 18): 10341 | virus production (supernatant reverse transcriptase activity) ([7]; 7 μg/ml, day 25): 9079 | virus production (supernatant reverse transcriptase activity) ([7]; 7 μg/ml, day 32): 6797 | virus production (supernatant reverse transcriptase activity) ([7]; 7 μg/ml, day 39): 9792 | virus production (supernatant reverse transcriptase activity) ([7]; 7 μg/ml, day 46): 9915 | virus production (supernatant reverse transcriptase activity) ([7]; 7 μg/ml, day 53): 1094 | virus production (supernatant reverse transcriptase activity) ([7]; 15 μg/ml, day 4): 11151 | virus production (supernatant reverse transcriptase activity) ([7]; 15 μg/ml, day 11): 9935 | virus production (supernatant reverse transcriptase activity) ([7]; 15 μg/ml, day 18): 9738 | virus production (supernatant reverse transcriptase activity) ([7]; 15 μg/ml, day 25): 7104 | virus production (supernatant reverse transcriptase activity) ([7]; 15 μg/ml, day 32): 6426 | virus production (supernatant reverse transcriptase activity) ([7]; 15 μg/ml, day 39): 10618 | virus production (supernatant reverse transcriptase activity) ([7]; 15 μg/ml, day 46): 10471 | virus production (supernatant reverse transcriptase activity) ([7]; 15 μg/ml, day 53): 9756 | virus production (supernatant reverse transcriptase activity) ([7]; 30 μg/ml, day 4): 12033 | virus production (supernatant reverse transcriptase activity) ([7]; 30 μg/ml, day 11): 9859 | virus production (supernatant reverse transcriptase activity) ([7]; 30 μg/ml, day 18): 11874 | virus production (supernatant reverse transcriptase activity) ([7]; 30 μg/ml, day 25): 5281 | virus production (supernatant reverse transcriptase activity) ([7]; 30 μg/ml, day 32): 4154 | virus production (supernatant reverse transcriptase activity) ([7]; 30 μg/ml, day 39): 5379 | virus production (supernatant reverse transcriptase activity) ([7]; 30 μg/ml, day 46): 5239 | virus production (supernatant reverse transcriptase activity) ([7]; 30 μg/ml, day 53): 4423
